Test results: patent US7056938B1, “Method for scavenging radicals with urocanic acid, derivatives and analogues” (Academisch Ziekenhuis Bij De Univ., priority 1999, dated 2006)

Assays:
[1] = Fenton oxidation of UCA (Fe2+ / hydrogen peroxide, HPLC); format: physicochemical; details: for TRANS-UROCANIC ACID LEFT OVER: trans-UCA 40 μM, hydrogen peroxide 500 μM; for YIELD of FENTON OXIDATION PRODUCTS: sum of 8 major peaks
Procedure: Trans-UCA and cis-UCA were separated from each other and from several UCA oxidation products on a 4.6×250 mm Alltima C18 and Luna C18 reversed-phase column (Alitech, Deerfield, Ill. and Phenomenex, Torrence, Calif., resp.) with a flow of 0.8 mL/min, delivered by P-3500 HPLC-pumps (Pharmacia, Uppsala, Sweden). Samples of 20 to 200 μL were injected by a Promis II autosampler (Spark Holland, Emmen, The Netherlands) and chromatographic data were recorded on an SP 4270 integrator (Spectra Physics, San Jose, Calif.). Peak area data from samples were only processed under identical HPLC circumstances. A UV-detector (Applied Biosystems, model 759A, Foster City, Calif.) was set for 226 nm detection. Isocratic elution was performed with 10 mM ammonium formate buffer, containing 0.2–0.8 mM tetrabutylammonium(TBA)formate and 1% acetonitrile (pH 7.2). Collected fractions were acidified with formic acid up to a final concentration of 100 mM and passed through C18 could phase extraction columns (J T Baker, Deventer, The Netherlands) in order to remove TBA.
[…] In addition, two hydroxyl-radical-generating systems with copper ions (Cu^2+) were used, consisting of 50 μM Cu^2+ with either 500 μM hydrogen peroxide or 5 mM ascorbic acid.
In the next series of experiments we studied the Fenton oxidation of UCA, representing another natural oxidation process. Trans-UCA and cis-UCA isomers were Fenton oxidized by ferorus ions (Fe^2+) and hydrogen peroxide at physiological concentrations. The initial hydrogen peroxide concentration was 500 μM and the ferrous ion concentration was varied from 0 to 500 μM. In all Fenton oxidation reactions the degree of UCA-isomer breakdown was calculated from their reduced peak areas. The oxidation reaction must have been completed within 2 minutes for all reaction conditions, because no further breakdown was observed after prolonged incubation.
When the Fenton reaction was performed in water instead of phosphate buffer, the oxidative breakdown of trans-UCA was enhanced irrespective of the UCA concentration. The turbidity seen in reactions performed in phoshate buffer (10 mM) with high Fe^2+ concentration (>100 μM) was probably due to the formation of insoluble, iron phosphate, thereby reducing the free availability of Fe^2+. Table 3 summarizes the difference between water and phosphate medium for trans-UCA at an initial concentration of 40 μM with respect to its breakdown and the formation of Fenton-oxidation products. Similarly to the photo-oxidation experiments, the peak areas of the 8 major oxidation products were summed. […] A close resemblance was observed between the chromatographic patterns of UCA Fenton oxidation products (not shown) and those of UCA photo-oxidation products. Three of them has been identified (vide infra).
In another series of experiments we studied the Fenton oxidation of UCA, representing another natural oxidation process. The initial hydrogen peroxide concentration was 500 μM in all experiments and the ferrous ion concentration was varied from 0 to 400 μM. Four sets of conditions were compared: […] in phosphate buffer pH 7.2, 2. Fe^2+ in phosphate buffer plus EDTA, 3. Fe^2− without buffer with a initial pH of 5.5–5.3 and 4. Cu^2+ in phosphate buffer plus ascorbate. The degree of breakdown was similar for both UCA isomers.

[2] = hydroxyl-radical-generating systems with copper ions (Cu2+); format: physicochemical
Procedure: UCA isomers (10 or 40 μM) were oxidized with a hydroxyl-radical-generating system that consisted of various concentrations of ferrous ions (10–500 μM) and a fixed hydrogen peroxide concentration of 500 μM (the Fenton reagent), either in a sodium phosphate (10 or 20 mM) medium of pH 7.2, or in ultrapure water. In addition, two hydroxyl-radical-generating systems with copper ions (Cu^2+) were used, consisting of 50 μM Cu^2+ with either 500 μM hydrogen peroxide or 5 mM ascorbic acid.
Evaluation of the data was difficult with the ascorbate system, because several interfering peaks had occurred in the chromatograms, which were probably derived from ascorbic acid and its oxidation products.
When another hydroxyl-radical-generating system, based on copper ions (Cu^2+) was investigated, the combination of Cu^2+/ascorbic acid/hydrogen peroxide caused a large breakdown or trans-UCA (Table 3) and a moderate yield of UCA oxidation products, in favor of ImCOOH. […] For the situation in vivo, one must remember that the epidermal copper content is lower than iron (29).

O=C(O)/C=C/c1cnc[nH]1 [trans-Urocanic acid, Trans-urocanic acid]
TRANS-UROCANIC ACID LEFT OVER ([1]; Fe2+ 0 μM, in phosphate buffer 10 mM pH 7.2): 100 (±1) % | YIELD of FENTON OXIDATION PRODUCTS ([1]; Fe2+ 0 μM, in phosphate buffer): <10 A.U. | YIELD of FENTON OXIDATION PRODUCTS ([1]; Fe2+ 0 μM, in water): <10 A.U. | TRANS-UROCANIC ACID LEFT OVER ([1]; Fe2+ 0 μM, in water): 100 (±3) % | TRANS-UROCANIC ACID LEFT OVER ([1]; Fe2+ 50 μM, in phosphate buffer 10 mM pH 7.2): 97 (±1) % | YIELD of FENTON OXIDATION PRODUCTS ([1]; Fe2+ 50 μM, in phosphate buffer): <10 A.U. | YIELD of FENTON OXIDATION PRODUCTS ([1]; Fe2+ 50 μM, in water): 194 (±34) A.U. | TRANS-UROCANIC ACID LEFT OVER ([1]; Fe2+ 50 μM, in water): 77 (±11) % | TRANS-UROCANIC ACID LEFT OVER ([1]; Fe2+ 100 μM, in phosphate buffer 10 mM pH 7.2): 94 (±5) % | YIELD of FENTON OXIDATION PRODUCTS ([1]; Fe2+ 100 μM, in phosphate buffer): 27 (±5) A.U. | YIELD of FENTON OXIDATION PRODUCTS ([1]; Fe2+ 100 μM, in water): 272 (±6) A.U. | TRANS-UROCANIC ACID LEFT OVER ([1]; Fe2+ 100 μM, in water): 48 (±7) % | TRANS-UROCANIC ACID LEFT OVER ([1]; Fe2+ 250 μM, in phosphate buffer 10 mM pH 7.2): 83 (±3) % | YIELD of FENTON OXIDATION PRODUCTS ([1]; Fe2+ 250 μM, in phosphate buffer): 36 (±3) A.U. | YIELD of FENTON OXIDATION PRODUCTS ([1]; Fe2+ 250 μM, in water): 423 (±76) A.U. | TRANS-UROCANIC ACID LEFT OVER ([1]; Fe2+ 250 μM, in water): 19 (±8) % | TRANS-UROCANIC ACID LEFT OVER ([1]; Fe2+ 500 μM, in phosphate buffer 10 mM pH 7.2): 78 (±12) % | YIELD of FENTON OXIDATION PRODUCTS ([1]; Fe2+ 500 μM, in phosphate buffer): 49 (±9) A.U. | YIELD of FENTON OXIDATION PRODUCTS ([1]; Fe2+ 500 μM, in water): 511 (±35) A.U. | TRANS-UROCANIC ACID LEFT OVER ([1]; Fe2+ 500 μM, in water): <4% | broken down by the unbuffered Fenton oxidation system ([1]; initial UCA concentration 250 μM, unbuffered): 78% | trans-UCA left ([2]; Cu2+ (50 μM) and ascorbic acid (5 mM) without hydrogen peroxide): 3% | trans-UCA left ([2]; Cu2+ (50 μM) and hydrogen peroxide (500 μM), without ascorbic acid): 88%
